“Also recorded” adds a separate entry of the source.
How the values were obtained:
[1] = tested on: MUC1-fs; test: MUC1-fs immunofluorescence high-content imaging assay in P cells; format: cell-based, human; conditions: read-out: EC50 for removal of MUC1-fs (IF); P cells treated 48 hours
Description: Cells grown on CellCarrier-96 or -384 well Ultra microplates (PerkinElmer) were fixed 10 min in PBS containing 4% PFA (Electron Microscopy Sciences), permeabilized 15 min in 0.5% Triton X100 (X100-100ML, Sigma-Aldrich), blocked for 1 hr in blocking reagent (100 mM Tris HCL pH8; 150 mM NaCL; 5 g/L Blocking Reagent [11096176001, Roche]) and treated for 1 hr with primary antibodies diluted in blocking reagent (1:500, monoclonal Fab-A-VSH anti-fsMUC1, AbD22655.2, Bio-Rad; 1:2000, monoclonal Mouse anti-MUC1 (CD227), 60137, Stemcell Technologies; 1:200, polyclonal, Mouse anti-GM130, ab169276, Abcam; 1:100, polyclonal, Rabbit anti-TMED9, 216201-AP, Proteintech; 1:800, polyclonal, Rabbit anti-SEC31A, 17913-1-AP, Proteintech; 1:400, monoclonal, Rabbit anti-EEA1 (C45B10), 3288S, Cell signaling technology; 1:100, polyclonal, Rabbit anti-ERGIC-53, E1031, Sigma-Aldrich; 1:400, monoclonal, Mouse anti-LAMP1 (D401S), 15665, Cell signaling technology; 1:1000, polyclonal, Rabbit anti-Calnexin, ab22595, Abcam; 1:2000, monoclonal, Rabbit anti-GM130 (D6B1) XP, 12480, Cell signaling technology; 1:200, monoclonal, Rabbit anti TNG46, ab50595, Abcam; 1:100, monoclonal, Rabbit anti-Rab7 (D95F2) XP, 9367, Cell signaling technology; 1:100, monoclonal, Rabbit anti-Rab11 (D4F5) XP, 5589, Cell signaling technology). Fixed, stained cells were washed three times in PBS and incubated for 1 hr with secondary antibodies in blocking solution (1:500, Alexa Fluor 488® Goat anti-Mouse IgG, A-11029, Thermo Fisher Scientific®; 1:500, Alexa Fluor 647® F(ab′)2-Goat anti-Rabbit IgG, A21246, Thermo Fisher Scientific®; 1:2000, Hoechst 33342, H3570, Thermo Fisher Scientific®), then washed three times in PBS and imaged.
Cell nuclei were first identified using Hoechst staining, and cell number was calculated. Cytoplasmic regions were then detected around each nucleus based on combined channels. The cells from the edge of the field were eliminated from the analysis. For the quantification of protein abundance, the total signal intensity value for each antibody was calculated separately in the cell cytoplasm and the average signal per cell was calculated for each well.
P cells were seeded 24 hr prior to compound treatment at a density of 12,000 cells/well in 384 well Cell Carrier Ultra plates (6057308, Perkin Elmer), pre-coated with 0.25 mg/mL Synthemax II SC Substrate (3535, Corning). Compounds of the repurposing library set (Corsello et al., 2017) were used at 5 doses (35, 3.5, 0.35, 0.035 and 0.0035 μM) for the primary screen and 10 doses (16, 5.6, 1.8, 0.6, 0.21, 0.07, 0.02, 0.008, 0.002 and 0.0008 μM) for the following screens. The compounds, in two replicates, were transferred from compound source plates to the cell plates using the HighRes Pin Tool. […] After 48 hr incubation, cells were fixed for 20 min in 4% PFA (Electron Microscopy Sciences) in PBS, washed twice, then permeabilized (10 min) with 0.5% Triton-X100 (X100-100ML, Sigma-Aldrich) in PBS and washed once more. Cells were blocked for 10 min at RT with Blocking solution (100 mM Tris HCL pH8; 150 mM NaCL; 5 g/L Blocking Reagent [11096176001, Roche]), then incubated 90 min at RT with one of the following primary antibodies in Roche Blocking solution: 1:500, monoclonal Fab-A-VSH anti-MUC1-fs, AbD22655.2, Bio-Rad; 1:2000, monoclonal mouse anti-MUC1 (214D4), 05-652-KC, Millipore; 1:1000, monoclonal, Rabbit anti-GM130 (D6B1) XP, 12480, Cell signaling technology. […]

[2] = Dose response exposure PK study in male 129-ELITE mice; format: in vivo, mouse; conditions: single p.o. doses
Description: 4) A pharmacokinetic study was performed by Charles River Labs (CRL) (Worcester, Mass., USA) in fed male 129-ELITE mice (study EF-0024-DA-MI) to determine the dose response exposure of BRD-4780, BRD-1365 and BRD-7709 in plasma, kidney, liver and eye. Brain exposure to BRD-4780 at 30 mg/kg was also evaluated A single dose of BRD-4780 was administered at 30.0 mg/kg or 100 mg/kg orally (p.o) in a clear solution of 5% dextrose in water (D5W). For BRD-1365 and BRD-7709, a single dose of either compound was administered at 10.0 mg/kg, 30.0 mg/kg, 50.0 mg/kg or 100 mg/kg orally (p.o) in a clear solution of 5% dextrose in water (D5W). Blood, kidney, liver and eye tissue were collected from n=3 mice per dose group at six time points post p.o. dose administration (1, 2, 6, 10, 16 and 24 hours) with all three compounds. Brain tissue was collected from n=3 mice per dose group at six time points post p.o. dose administration (1, 2, 6, 10, 16 and 24 hours) with BRD-4780 at 30 mg/kg. Plasma obtained by centrifugation and tissue fragments were homogenized. Plasma and tissue drug concentration was determined by LC-MS/MS and reported as drug concentration in ng/mL for plasma and ng/mg for kidney, liver and eye tissue, plotted as the mean±standard deviation concentration for males for BRD-4780 ([…]), BRD-1365 (FIG. 11K) and BRD-7709 (FIG. 11M). Standard pharmacokinetic parameters were calculated for males for BRD-4780 ([…]), BRD-1365 (FIG. 11O) and BRD-7709 (FIG. 11P).

[3] = Plasma protein binding (equilibrium dialysis); format: in vitro ADME
Description: Plasma protein binding was determined by equilibrium dialysis using a Rapid Equilibrium Dialysis (RED) device (Pierce Biotechnology). Each compound was prepared in duplicate at 5 μM in plasma (0.95% acetonitrile, 0.05% DMSO) and added to one side of the membrane with PBS pH 7.4 added to the other side. Compounds were incubated at 37° C. for 5 hr with a 350 rpm orbital shake. After incubation, an aliquot was taken from each side of the membrane and quenched by adding acetontrile to a 3:1 ratio (v/v, ACN:plasma). After quenching, samples were centrifuged (32×G) to pellet precipitated particulates and an aliquot of supernatant was diluted 50/50 (v/v) with water. The resulting solution was analyzed by UPLC-MS/MS with compounds detected by MRM detection on a triple quadrupole mass spectrometer. The compound peak area on the buffer side of the membrane was compared to the peak area on the plasma side of the membrane to determine percent bound. Percent bound in plasma was calculated through the following equations: % free=[area (buffer)/area (plasma)]×100. % bound=100−% free.

[4] = tested on: UPR; test: RNA-Seq analysis of UPR branch activation in P cells; format: cell-based, human; conditions: BRD-4780 1 μM, THP 100 nM
Description: For RNA-seq experiments, N and P cells were plated in 12-well plates at 200,000 cells/well. Subsequently, 1 μM of BRD-4780 or DMSO were applied for 24 hr followed by 12 hr exposure to 100 nM of thapsigargin (THP) or DMSO for control. At the end of the experiment, RNA was extracted from treated cells and sequencing was performed as described below.
UPR branch activation analysis is presented as boxplots. Each box of the boxplot consists of genes comprising an individual UPR branch (Adamson et al., 2016). The expression of each gene in the group is plotted as mean of the scaled expression profiles obtained from three replicates.

[5] = molecular target: T1, TMED9 (Homo sapiens, UniProt Q9BVK6); test: Cellular thermal shift assay (CETSA) for TMED9 in P cells; format: binding; conditions: 5 μM, 1 hour
T1 construct: TMED9 abundance in P cells at escalating temperatures (as indicated) with or without treatment with BRD-4780; endogenous in cells; host or cells: P cells (intact cells treated, then heated and lysed)
T1 sequence (Q9BVK6 38-235): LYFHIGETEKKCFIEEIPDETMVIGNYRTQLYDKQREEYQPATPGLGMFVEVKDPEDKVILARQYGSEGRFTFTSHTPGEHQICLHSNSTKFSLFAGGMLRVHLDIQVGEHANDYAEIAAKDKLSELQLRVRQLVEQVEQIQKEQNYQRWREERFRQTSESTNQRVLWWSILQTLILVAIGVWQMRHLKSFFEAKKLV
Description: CETSAs were performed as previously described (Jafari et al., 2014; Reinhard et al., 2015). In brief, P cells were treated in the presence or absence of BRD-4780 for 1 hr, harvested (trypsinized), washed in PBS, resuspended in PBS (containing protease inhibitors) and distributed in 0.2 ml PCR tubes (100 μl; 600,000 cells). Cells were incubated at their designated temperatures for 3 min, then at 25° C. for 3 min and lysed by the addition of 1% NP-40. Immediately thereafter, samples were snap frozen and thawed using thermal cycler set at 25° C. Samples were spun at 20′000×g for 20 min (4° C.) to remove precipitated protein and the supernatant was analyzed by Western blot to examine the TMED9/Nischarin thermal stability.

[6] = In vitro toxicity (cell number / viability); format: cell-based; conditions: any concentration tested
Description: Image acquisition and analysis was done as described elsewhere herein. Following image analysis, three parameters were selected, i) MUC1-fs and ii) MUC1-wt total cytoplasm intensity (averaged per cell) and iii) cell number as was detected by Hoechst 33342 stained nuclei. The levels of MUC1-fs and MUC1-wt found following DMSO and JQ1 were defined as 0 and −100% activity, respectively. […] Cell number was normalized to DMSO control. All compound concentrations showing >−20% reduction in cell number were masked out. Based on ±3 median absolute deviation value (FIG. 10A), hit calling criteria for the primary and secondary screens were chosen as MUC1-fs reduction >30% in two or more consecutive concentrations for both replicates. For the secondary screen, dose response curves were generated for each parameter using Genedata Screener (Genedata AG), and positive hits for the profiling screens were selected based on the compounds activity for reducing MUC1-fs and lack of toxicity. MUC1-fs specificity (according to MUC1 fs/wt ratio) was used as an additional positive criterion for selection.

[7] = Liver microsomes stability; format: in vitro ADME
Description: Stability was determined at 37° C. at 1 hour in liver microsomes. Each compound was prepared in duplicate at 1 μM in liver microsomes diluted 50/50 (v/v) with PBS pH 7.4. After addition of compounds to microsome mixture, the plate was sealed and vortexed and 100 µL of each sample was added to 3004 acetonitrile (with internal standard). Assay plate was incubated at 37° C. for 1 hr with a 350 rpm orbital shake, and following the hour 1004 of each sample was added to 300 μL acetonitrile (with internal standard). After quenching, samples were refrigerated for at least 1 hour. The samples were centrifuged (32×G) to pellet precipitated particulates and an aliquot of supernatant was diluted 50/50 (v/v) with water. The resulting solution was analyzed by UPLC-MS/MS with compounds detected by MRM detection on a triple quadrupole mass spectrometer. The compound peak areas in the 0 and 1 hour samples, -NADPH sample, and no compound control sample were compared to determine a percent remaining. Percent remaining in microsomes was calculated through the following equation: % remaining=[area (1 hr)/area (0 hr)]×100. (LC System, Waters Acquity I-Class; MS System, AB Sciex Triple Quad 4500; Column, Waters Acquity UPLC BEH C18, 1.7 μm, 2.1×50 mm; Mobile Phase A, Water with 0.1% formic acid; Mobile Phase B, Acetonitrile with 0.1% formic acid; Flow Rate, 0.90 mL/min; Column Temperature, 55° C.).

## CC(C)[C@@H]1[C@H]2CC[C@H](C2)[C@H]1N (racemic) [BRD-4780, 2-endo-amino-3-exo-isopropylbicyclo[2.2.1]heptane]
[1]
  EC50: 143 nM
[2]
  dose proportionality of AUC exposures: not dose proportional
[3]
  protein binding (in words): low protein binding
[3]; plasma
  estimated percent protein bound: 29.7%
[4]
  UPR activation: significantly reduced UPR activation
[5]
  TMED9 thermal stability (CETSA): shifted the TMED9 heat denaturation curve to significantly higher temperatures; also recorded: Higher abundance of TMED9 was noted at temperatures >47 °C
[6]
  in vitro toxicity: no overt toxicity at any concentration tested
[7]
  microsomal stability: good microsomal and plasma stability
